# What was measured:
# [1] = tested on: methicillin-resistant Staphylococcus aureus (MRSA) clinical isolates; assay: Broth microdilution MIC, clinical MRSA isolates; type: cell-based; conditions: for MIC against clinical MRSA isolates (as a group): 6 clinical MRSA isolates; for MIC, MRSA 20 426: clinical isolate 20 426, blood, 2020; for MIC, MRSA 24 035: clinical isolate 24 035, wound; for MIC, MRSA 24 035 / MIC, MRSA 24 268 / MIC, MRSA 24 272 / MIC, MRSA 24 328 / MIC, MRSA 24 408: 2018; for MIC, MRSA 24 268: clinical isolate 24 268, throat; for MIC, MRSA 24 272: clinical isolate 24 272, throat; for MIC, MRSA 24 328: clinical isolate 24 328, throat; for MIC, MRSA 24 408: clinical isolate 24 408, bronchial
# Method: (§1) The MIC values of the complexes were determined against the reference strains of S. aureus (ATCC29213) and E. faecalis. (ATCC29212) and against clinical VRE and MRSA isolates by microdilution assays (repeated at least twice in duplicates) as described in Materials and Methods. The numbers indicate how many isolates were susceptible to the compound out of those tested; i.e., 1/6 stands for 1 isolate was susceptible out of 6 tested. […] Cells were harvested and lysed. Cellular proteins was separated on a 10% SDS-PAGE gel and were blotted. Blots were probed with 4HNE antibody (top blot), the lower blot was stained with amido black. Arrows point at band of interest. Experiments were repeated three times and a representative blot is shown. On the blots brightness and contrast were adjusted. […] Each was matched to a substance and strain by its position over the x-axis categories. / Ir-7: ND and 0/3 (left plot) and ND and 0/6 (right plot) were matched to E. faecalis/VRE and S. aureus/MRSA by position only.
# We used a set of clinical isloates of S. aureus and E. faecium that were collected at the Medical Center of the University of Debrecen (Hungary) between 01. 01. 2018.—31. 12. 2020. The clinical isolates were identified using a Microflex MALDI-TOF mass spectrometer (Bruker, Billerica, MA, United States). Antibiotic susceptibility of the isolates was tested following the European Committee on Antimicrobial Susceptibility Testing ([EUCAST, 2021]) guidelines valid at the time of collection.
# (§2) Microdilution experiments were performed according to the standards of EUCAST ([EUCAST, 2021]). […] The inoculated plates were incubated for 24 h at 37°C then were assessed visually. […] All experiments were performed at least twice in duplicates.
# [2] = tested on: 4-hydroxynonenal (4HNE)-modified proteins in A2780 cells; assay: Western blot for 4HNE-modified proteins in A2780 cells; type: cell-based; conditions: IC50 concentrations, 15 or 30 min, bands ∼70 kDa and ∼60 kDa
# Method: FIGURE 9 (A) Vitamin E, a lipid soluble antioxidant blocks the cytostatic activity of the bioactive complexes. 1.5 × 10^3 A2780 cells were plated to 96 well plates. Cells were treated with the compounds in the concentrations indicated for 48 h followed by an SRB assay. Data is represented as average ± SD, from four biological replicates; individual assays were performed in duplicates. Values were normalized for vehicle treated cells, absorbance for vehicle treated cells equals to 1. Normality was checked using the D’Agostino-Pearson normality test. […] Statistical significance was assessed using two-way ANOVA test comparing all measurement points. * and *** represent statistical significance at p <0.05 and 0.001, respectively, between the lowest concentration and the higher concentrations among non-vitamin E-treated cells. ! and !!! represent statistical significance at p <0.05 and 0.001, respectively, between the lowest concentration and the higher concentrations among vitamin E-treated cells. #, ## and ### represent statistical significance at p <0.05, p <0.01 and 0.001, respectively, between the non-vitamin E-treated vs. vitamin E-treated cells. […] Cells were harvested and lysed. Cellular proteins were separated on a 10% SDS-PAGE gel and were blotted. […]
# To complement the vitamin E experiments we assessed oxidative stress by detecting the formation of 4-hydroxynonenal (4HNE)-modified proteins, a hallmark of oxidative stress ([Ayala et al., 2014]; [Zhang and Forman, 2017]). […]
# (§3) SDS-polyacrylamide gel electrophoresis and Western blot was performed as in ([Márton et al., 2018]) using an antibody against 4HNE (Abcam (ab46545) 1:1000) that was detected using a corresponding peroxidase-conjugated secondary antibody (1:10000, Cell Signaling Technology, Inc., Beverly, MA, United States). […] ECL and amido black pictures were captured using the ChemiDoc Touch Imaging System (Bio-Rad Laboratories, Inc., Hercules, California, United States) and the pictures were evaluated using the Image Lab software (Bio-Rad).
# [3] = tested on: Enterococcus faecalis (ATCC29212); assay: Broth microdilution MIC, Enterococcus faecalis reference strain; type: cell-based; conditions: Enterococcus faecalis ATCC29212, 24 h
# Method: as §1
# (§4) We used the reference strains of Staphylococcus aureus (ATCC29213), and Enterococcus faecalis (ATCC29212) that were purchased from ATCC (Manassas, VA, United States).
# as §2
# [4] = tested on: 4HNE formation in Staphylococcus aureus reference strain; assay: Western blot for 4HNE in Staphylococcus aureus reference strain; type: cell-based; conditions: at MIC (Ru-7 10 μM, Os-7 20 µM), 15 min, 30 min, 1 h; band ∼50 kDa
# Method: (§5) The MIC values of the complexes were determined against the reference strains of S. aureus (ATCC29213) and E. faecalis. (ATCC29212) and against clinical VRE and MRSA isolates by microdilution assays (repeated at least twice in duplicates) as described in Materials and Methods. The numbers indicate how many isolates were susceptible to the compound out of those tested; i.e., 1/6 stands for 1 isolate was susceptible out of 6 tested. […] Cells were harvested and lysed. Cellular proteins was separated on a 10% SDS-PAGE gel and were blotted. Blots were probed with 4HNE antibody (top blot), the lower blot was stained with amido black. Arrows point at band of interest. Experiments were repeated three times and a representative blot is shown. On the blots brightness and contrast were adjusted. […]
# as §3
# [5] = tested on: 4HNE expression in Enterococcus faecalis reference strain; assay: Western blot for 4HNE in Enterococcus faecalis reference strain; type: cell-based; conditions: at MIC (Ru-7 5 μM, Os-7 10 µM), 15 min, 30 min, 1 h; band ∼120 kDa
# Method: as §5, §3
# [6] = tested on: Staphylococcus aureus (ATCC29213); assay: Broth microdilution MIC, Staphylococcus aureus reference strain; type: cell-based; conditions: Staphylococcus aureus ATCC29213, 24 h
# Method: as §1, §4, §2
# [7] = Determination of the distribution coefficients (logD); type: physicochemical; conditions: distribution coefficient
SMILES,MIC against clinical MRSA isolates (as a group) [1],"MIC, MRSA 20 426 [1]","MIC, MRSA 24 035 [1]","MIC, MRSA 24 268 [1]","MIC, MRSA 24 272 [1]","MIC, MRSA 24 328 [1]","MIC, MRSA 24 408 [1]",4HNE formation (4HNE-modified proteins) [2],"MIC, Reference E. faecalis [3] [µM]",4HNE formation in Staphylococcus aureus reference strain [4],4HNE expression in Enterococcus faecalis reference strain [5],"MIC, Reference S. aureus [6] [µM]","MRSA isolates susceptible out of those tested ([1]; 6 isolates tested, susceptible = MIC up to 40 µM)",LogD [7]
Cc1c(C)c(C)[c-](C)c1C.F[P-](F)(F)(F)(F)F.O=C(OCC1OC(n2cc(-c3ccc4ccccc4n3)nn2)C(OC(=O)c2ccccc2)C(OC(=O)c2ccccc2)C1OC(=O)c1ccccc1)c1ccccc1.[Cl][Ir+2] (mixture of isomers) [Ir-7],no activity,40< µM,40< µM,40< µM,40< µM,40< µM,40< µM,gross induction of 4HNE formation,–,–,–,–,–,–
Cc1ccc(C(C)C)cc1.F[P-](F)(F)(F)(F)F.O=C(OCC1OC(n2cc(-c3ccc4ccccc4n3)nn2)C(OC(=O)c2ccccc2)C(OC(=O)c2ccccc2)C1OC(=O)c1ccccc1)c1ccccc1.[Cl][Ru+] (mixture of isomers) [Ru-7],5 to 40 µM,10 µM,40 µM,20 µM,5 µM,10 µM,10 µM,gross induction of 4HNE formation,5,induced 4HNE formation,induced 4HNE expression,10,–,–
Cc1ccc(C(C)C)cc1.F[P-](F)(F)(F)(F)F.O=C(OCC1OC(n2cc(-c3ccc4ccccc4n3)nn2)C(OC(=O)c2ccccc2)C(OC(=O)c2ccccc2)C1OC(=O)c1ccccc1)c1ccccc1.[Cl][Os+] (mixture of isomers) [Os-7],5 µM,40< µM,40< µM,40< µM,5 µM,40< µM,40< µM,gross induction of 4HNE formation,10,induced 4HNE formation,induced 4HNE expression,20,1 out of the 6,2.33

# From paper PMC9923724, “Half sandwich-type osmium, ruthenium, iridium and rhodium complexes with bidentate glycosyl heterocyclic ligands induce cytostasis in platinum-resistant ovarian cancer cells and bacteriostasis in Gram-positive multiresistant bacteria” (Frontiers in Chemistry, 2023)
